From US20250230193A1, “CYCLIC COMPOUND HAVING SELECTIVE KRAS INHIBITORY EFFECT ON HRAS AND NRAS” (CHUGAI SEIYAKU KABUSHIKI KAISHA, priority 2022, published 2025)

Tests used:
[1] = target: GDP-bound HRAS wild-type protein (Homo sapiens, UniProt P01112); experiment: Binding to HRAS by surface plasmon resonance (SPR), Single Cycle Kinetics; conditions: KD ratio HRAS/KRAS, SPR, GDP-bound wild-type proteins
[2] = target: GDP-bound NRAS wild-type protein (Homo sapiens, UniProt P01111); experiment: Binding to NRAS by surface plasmon resonance (SPR), Single Cycle Kinetics; conditions: KD ratio NRAS/KRAS, SPR, GDP-bound wild-type proteins
Chain of GDP-bound NRAS wild-type protein (P01111 whole entry): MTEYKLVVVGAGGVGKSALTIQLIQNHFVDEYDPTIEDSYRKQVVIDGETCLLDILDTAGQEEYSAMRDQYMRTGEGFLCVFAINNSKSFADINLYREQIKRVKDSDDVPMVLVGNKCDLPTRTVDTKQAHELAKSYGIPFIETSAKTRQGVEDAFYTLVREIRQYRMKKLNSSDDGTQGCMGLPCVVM

Chain of GDP-bound HRAS wild-type protein (P01112 whole entry): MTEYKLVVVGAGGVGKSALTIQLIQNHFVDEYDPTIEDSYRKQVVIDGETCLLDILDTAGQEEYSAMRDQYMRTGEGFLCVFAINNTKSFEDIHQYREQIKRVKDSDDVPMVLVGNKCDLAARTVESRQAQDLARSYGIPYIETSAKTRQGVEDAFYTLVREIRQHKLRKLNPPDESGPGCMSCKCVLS

SMILES | HRAS/KRAS (ratio of KD value with respect to GDP-bound HRAS wild-type protein to KD value with respect to KRAS) [1] | NRAS/KRAS (ratio of KD value with respect to GDP-bound NRAS wild-type protein to KD value with respect to KRAS) [2]
CCC[C@H]1C(=O)N[C@@H](C2CCOCC2)C(=O)N(C)CC(=O)N(C)[C@H]2C/C=C\CCN(C2=O)[C@@H](Cc2ccc(C(F)(F)F)cc2)C(=O)N(C)CC(=O)N[C@@H](CCc2ccc(C(F)(F)F)c(Cl)c2)C(=O)N2C[C@H](OCC)C[C@H]2C(=O)NC2(CC(C)(C)C2)C(=O)N(C)[C@@H](CC(C)(C)C)C(=O)N(C)[C@H](C(=O)N(C)C)CC(=O)N1C [PP3022] | A (a compound having 10 or more and less than 20 is denoted as A) | AA (a compound having 20 or more is denoted as AA)
CCC[C@H]1C(=O)N[C@@H](C2CCOCC2)C(=O)N(C)CC(=O)N(C)[C@H]2C/C=C\CCN(C2=O)[C@@H](Cc2ccc(C)cc2)C(=O)N(C)CC(=O)N[C@@H](CCc2ccc(C(F)(F)F)c(Cl)c2)C(=O)N2C[C@H](OCC)C[C@H]2C(=O)NC2(CC(C)(C)C2)C(=O)N(C)[C@@H](CC(C)(C)C)C(=O)N(C)[C@H](C(=O)N(C)C)CC(=O)N1C [PP3026] | A (a compound having 10 or more and less than 20 is denoted as A) | A (a compound having 10 or more and less than 20 is denoted as A)
CCC[C@H]1C(=O)N[C@@H]([C@@H](C)CC)C(=O)N(C)CC(=O)N(C)[C@H]2C/C=C\CCN(C2=O)[C@@H](Cc2ccc(C(F)(F)F)cc2)C(=O)N(C)CC(=O)N[C@@H](CCc2ccc(Cl)c(Cl)c2)C(=O)N2CCCCC[C@H]2C(=O)NC2(CC(C)(C)C2)C(=O)N(C)[C@@H](C(CC)CC)C(=O)N(C)[C@H](C(=O)N(C)C)CC(=O)N1C [PP3031] | A (a compound having 10 or more and less than 20 is denoted as A) | AA (a compound having 20 or more is denoted as AA)
CCO[C@@H]1C[C@H]2C(=O)NC3(CC(C)(C)C3)C(=O)N(C)[C@@H](C(CC)CC)C(=O)N(C)[C@H](C(=O)N(C)C)CC(=O)N(C)[C@H]3CCCCCCc4ccc(cc4)C[C@@H](C(=O)N(C)CC(=O)N[C@@H](CCc4ccc(C(F)(F)F)c(OC)c4)C(=O)N2C1)N1CC/C=C\C[C@@H](C1=O)N(C)C(=O)CN(C)C(=O)[C@H]([C@@H](C)CC)NC3=O [PP3032] | A (a compound having 10 or more and less than 20 is denoted as A) | AA (a compound having 20 or more is denoted as AA)
CCO[C@@H]1C[C@H]2C(=O)NC3(CCC3)C(=O)N(C)[C@@H](C3CCCC3)C(=O)N(C)[C@H](C(=O)N3CCCCC3)CC(=O)N(C)[C@H]3CCCCCCc4ccc(cc4)C[C@@H](C(=O)N(C)CC(=O)N[C@@H](CCc4ccc(C(F)(F)F)c(OC)c4)C(=O)N2C1)N1CC/C=C\C[C@@H](C1=O)N(C)C(=O)CN(C)C(=O)[C@H]([C@@H](C)CC)NC3=O [PP3033, (1S,7S,11R,13S,19S,22S,26S,29S,35S,37Z)-19-cyclopentyl-11-ethoxy-7-[2-[3-methoxy-4-(trifluoromethyl)phenyl]ethyl]-3,18,21,25,31,34-hexamethyl-29-[(1S)-1-methylpropyl]-22-(piperidine-1-carbonyl)spiro[3,6,9,15,18,21,25,28,31,34,41-undecazapentacyclo[24.15.11.2^43,46.1^35,41.0^9,13]pentapentaconta-37,43(54),44,46(53)-tetraene-16,1′-cyclobutane]-2,5,8,14,17,20,24,27,30,33,55-undecone] | B (a compound having 3 or more and less than 10 is denoted as B) | A (a compound having 10 or more and less than 20 is denoted as A)
CCO[C@@H]1C[C@H]2C(=O)NC3(CC(C)(C)C3)C(=O)N(C)[C@@H](C3CCCC3)C(=O)N(C)[C@H](C(=O)N3CCCC3)CC(=O)N(C)[C@H]3CCCCCCc4ccc(cc4)C[C@@H](C(=O)N(C)CC(=O)N[C@@H](CCc4ccc(C(F)(F)F)c(OC)c4)C(=O)N2C1)N1CC/C=C\C[C@@H](C1=O)N(C)C(=O)CN(C)C(=O)[C@H]([C@@H](C)CC)NC3=O [PP3034, (1S,7S,11R,13S,19S,22S,26S,29S,35S,37Z)-19-cyclopentyl-11-ethoxy-7-[2-[3-methoxy-4-(trifluoromethyl)phenyl]ethyl]-3,3′,3′,18,21,25,31,34-octamethyl-29-[(1S)-1-methylpropyl]-22-(pyrrolidine-1-carbonyl)spiro[3,6,9,15,18,21,25,28,31,34,41-undecazapentacyclo[24.15.11.2^43,46.1^35,41.0^9,13]pentapentaconta-37,43(54),44,46(53)-tetraene-16,1′-cyclobutane]-2,5,8,14,17,20,24,27,30,33,55-undecone] | B (a compound having 3 or more and less than 10 is denoted as B) | A (a compound having 10 or more and less than 20 is denoted as A)
CCO[C@@H]1C[C@H]2C(=O)NC3(CC(C)(C)C3)C(=O)N(C)[C@@H](C(CC)CC)C(=O)N(C)[C@H](C(=O)N(C)C)CC(=O)N(C)[C@H]3CCCCCc4ccc(cc4)C[C@@H](C(=O)N(C)CC(=O)N[C@@H](CCc4ccc(C(F)(F)F)c(OC)c4)C(=O)N2C1)N1CC/C=C\C[C@@H](C1=O)N(C)C(=O)CN(C)C(=O)[C@H]([C@@H](C)CC)NC3=O [PP3035] | A (a compound having 10 or more and less than 20 is denoted as A) | AA (a compound having 20 or more is denoted as AA)
CCO[C@@H]1C[C@H]2C(=O)NC3(CC(C)(C)C3)C(=O)N(C)[C@@H](C3CCCC3)C(=O)N(C)[C@H](C(=O)N3CCCCC3)CC(=O)N(C)[C@H]3CCCCCc4ccc(cc4)C[C@@H](C(=O)N(C)CC(=O)N[C@@H](CCc4ccc(C(F)(F)F)c(OC)c4)C(=O)N2C1)N1CC/C=C\C[C@@H](C1=O)N(C)C(=O)CN(C)C(=O)[C@H]([C@@H](C)CC)NC3=O [PP3036, (1S,7S,11R,13S,19S,22S,26S,29S,35S,37Z)-19-cyclopentyl-11-ethoxy-7-[2-[3-methoxy-4-(trifluoromethyl)phenyl]ethyl]-3,3′,3′,18,21,25,31,34-octamethyl-29-[(1S)-1-methylpropyl]-22-(piperidine-1-carbonyl)spiro[3,6,9,15,18,21,25,28,31,34,41-undecazapentacyclo[24.15.10.2^43,46.1^35,41.0^9,13]tetrapentaconta-37,43(53),44,46(52)-tetraene-16,1′-cyclobutane]-2,5,8,14,17,20,24,27,30,33,54-undecone] | B (a compound having 3 or more and less than 10 is denoted as B) | A (a compound having 10 or more and less than 20 is denoted as A)
